In brackets after ≈: the same amount, converted by molar mass.
Assays:
Enterobacter cloacae = experiment: MIC assay (microdilution); type: cell-based; details: Ent. cloacae
Escherichia coli = experiment: MIC assay (microdilution); type: cell-based
DNBS-induced colitis [1] = experiment: DNBS-induced colitis in rat, macroscopic observations (body weight, total IBD score); type: in vivo, Sprague-Dawley rats; details: for total IBD score: vs placebo
Text: Animals: Male Sprague-Dawley rats, weighing approximately 250-300 gm were purchased from Charles River Laboratories (Raleigh, N.C.). The animals were housed under standard conditions with free access to food and water. They were acclimatized for 2-3 days before commencing the experiments. The study protocol was approved by the Institutional Animal Care and Use Committees (IACUC).
Induction of ulcerative colitis: Colitis was produced according to published methods. Animals were anesthetized by intraperitoneal injection of 75 mg/kg of ketamine plus 5 mg/kg of xylazine. A single intracolonic injection of 120 mg/ml of dinitrobenzenesulfonic acid (DNBS) (Sigma Chemicals, St. Louis, Mo.) in 250 micro liter of 50% ethanol was administered through a Tom Cat catheter (Kendall Sovereign, Mansfield, Mass.) with a closed-end tip, connected to a 1 ml syringe and placed 7 cm proximal to the anus. Lubricant was applied to the tip of the catheter before injection, to protect from mucosal injury. After instillation of DNBS, 0.5 ml of air was insufflated and the catheter was removed.
Sulfasalazine (Sigma Chemicals, St Louis, Mo.), at a concentration of 120 mg/ml for intracolonic treatment and 30 mg/ml for oral treatment was used as the reference drug in all the experiments. Sulfasalazine was first dissolved in 0.1M NaOH at a concentration about 30-fold higher than the required final concentration, and then suspended in 1.5% PVA for oral dosing and 5.7% PVA for intracolonic dosing.
One group was not treated and served as no treatment group. Treatment began one day after administration of DNBS.
Macroscopic Observations: Body weight was recorded daily and the animals were examined for their physical appearance. After five days of treatment, animals were sacrificed. The colon was excised between the ileocecal junction and rectum, and opened longitudinally. After scoring of the consistency of the stool the colon was rinsed in normal saline, examined and thickness of the colonic wall and number and size of ulcers were scored. Stool consistency was graded on a scale of 0-3: 0=normal stool, well formed pellets rigid as normal; 1=loose stool, formed pellet with moisture, soft stool keeping in stool shape; 2=loose stool, stools that have abnormal form with much moisture, softer shapeless stool; 3=watery or bloody diarrhea.
Thickness of colonic wall was graded on a scale of 0-4: 0=normal, no thickness; 1=mild thickness in lower portion of the colon; 2=moderate thickness in localized area; 3=moderate thickness extending to the central portion of the colon; 4=severe thickness in the whole colon. Colonic ulceration was graded on a scale of 0-10: 0=no ulcers; 1=one small ulcer less than 2-3 mm; 2=one large ulcer more than 2-3 mm; 3=two large ulcerations more than 2-3 mm in diameter; 4=two or more sites of ulcerations extending 1 cm along the length; 5-10=when an area of ulceration extended more than 1 cm along the length of the colon, the score increases by 1 for each additional cm of involvement. The total IBD score, obtained by the sum of the scores of colonic ulcer, colon thickness and stool consistency for each animal, was calculated for each treatment group.
Statistical Analysis: The results are expressed as the mean ±SE. The statistical significance in the mean total IBD score, histopathological inflammation score, and the immunohistochemical staining of cytokines or MMP-9 was determined using Tukey-Kramer's multiple comparison tests following one-way analysis of variance (ANOVA). The data were calculated with the aid of Instat Graph Pad Software. Differences with a P value less than 0.05 were considered significant.
Methods: Colitis was induced in rats using DNBS as described in Example 25. Animals were treated intracolonically (250 μl of the test reagents) once a day for five days. […] Methods: Colitis was induced in rats using DNBS as described in Example 25. Animals were treated intracolonically (250 μl of the test reagents) once a day for five days.

DNBS-induced colitis [2] = experiment: DNBS-induced colitis in rat, colon histopathology; type: in vivo, Sprague-Dawley rats
Experimental: Histopathology: A piece of colonic tissue at 2-4 cm proximal to the anus was excised and fixed in 10% formalin and the sections were stained with hematoxylin and eosin. The remaining length of the colonic tissues was stored at −80° C. for subsequent biochemical assays. The histology slides were examined by a veterinary pathologist who was blinded to the treatment groups. The extent of microscopic mucosal damage of the colon was scored on scale of 0-5 as described with slight modification: 0=normal histological appearance; 1=histological damage limited to surface epithelium, mild infiltration of the submucosa; 2=focal ulceration and cell disruption limited to mucosa, abnormal appearance of colonic wall, mild infiltration of inflammatory cells; 3=focal, transmural inflammation and ulceration, with mild to moderate infiltration of inflammatory cells; 4=Extensive transmural ulceration and inflammation bordered by areas of normal mucosa, moderate infiltration of inflammatory cells; 5=extensive transmural ulceration and inflammation involving entire section from epithelium to serosa, severe infiltration of inflammatory cells.
Statistical Analysis: The results are expressed as the mean ±SE. […] The data were calculated with the aid of Instat Graph Pad Software. […]

IL-1β = experiment: Immunohistochemistry of colonic tissue; type: in vivo, rat; details: five days oral treatment
Experimental: (§1) Immunohistochemistry: A Universal Streptavidin/Biotin detection system (Thermo Shandon, Pittsburgh, Pa.) was used for immunohistochemical staining of formalin fixed, paraffin embedded biopsies of the colon. After dewaxing, and hydration, sections were treated with protein blocking agent to reduce non-specific binding of antibodies. The tissues were then incubated with rabbit anti-rat TNF-α, or mouse anti-rat IL-12 p70 antibodies (Biosource International, Inc, Camarillo, Calif.); rabbit anti-rat IL-1β (Serotec, Raleigh, N.C.) or rabbit anti-rat MMP-9 antibody (Chemicon International, Telecuma, Calif.) in 1% bovine serum albumin in phosphate buffered saline. Incubations with secondary antibodies, streptavidin/biotin, and chromogenic detection of peroxidase were performed according to the manufacturer's protocol. Sections were counterstained, dehydrated, mounted and examined. The intensity of the immuno-peroxidase staining was graded as described previously. Expression of cytokines was graded as: 0, no staining in the section; 1, less than 25% of the section; 2, 25-50% of the section; 3, 50-75% of the section; 4, >75% of the section with significant staining.

MMP-9 = experiment: Immunohistochemistry of colonic tissue; type: in vivo, rat; details: vs placebo and no treatment
Experimental: as §1

TNF-α = experiment: Immunohistochemistry of colonic tissue; type: in vivo, rat; details: five days oral treatment
Experimental: as §1

Pseudomonas aeruginosa = experiment: MIC assay (microdilution); type: cell-based
Staphylococcus aureus = experiment: MIC assay (microdilution); type: cell-based; details: lactate solutions, nanocrystalline silver: range for 12 samples
[3] = tested on: Staphylococcus epidermidis; experiment: MIC assay (microdilution); type: cell-based; details: lactate solutions; S. epiderm (ATCC); nanocrystalline silver: range for 12 samples
Streptococcus pyogenes = experiment: MIC assay (microdilution); type: cell-based; details: lactate solutions, nanocrystalline silver: range for 12 samples
Streptococcus pneumoniae = experiment: MIC assay (microdilution); type: cell-based; details: lactate solutions, nanocrystalline silver: range for 12 samples
[4] = tested on: Mycobacterium tuberculosis H37Ra; type: cell-based

## OO [Sample H2O2, hydrogen peroxide]
Enterobacter cloacae; SOD/catalase +
  MIC: >500 µg/mL
Enterobacter cloacae; SOD/catalase −
  MIC: 63 µg/mL (≈ 1850 µM)
Escherichia coli; E. coli, SOD/catalase +
  MIC: >500 µg/mL
Escherichia coli; E. coli, SOD/catalase −
  MIC: 31 µg/mL (≈ 911 µM)

## O=C(O)c1cc(/N=N/c2ccc(S(=O)(=O)Nc3ccccn3)cc2)ccc1O [sulfasalazine, salicylazosulfapyridine]
DNBS-induced colitis [1]; DNBS colitis rats, intracolonic or oral treatment
  body weight: started gaining body weight after one day of treatment
DNBS-induced colitis [1]; Example 27, 100 mg/kg
  total IBD score: significantly reduced total IBD score
DNBS-induced colitis [1]; Example 28, 100 mg/kg
  total IBD score: significantly reduced total IBD score
DNBS-induced colitis [2]; oral 100 mg/kg, vs placebo and untreated
  histopathological inflammation score: significantly reduced the histopathological inflammation
DNBS-induced colitis [2]; oral, 40 mg/kg nanocrystalline silver, 100 mg/kg sulfasalazine
  colon sections (hematoxylin and eosin): healed mucosa and few residual inflammatory infiltrate
IL-1β
  expression of IL-1β (immunohistochemical staining): significantly reduced the expression
MMP-9
  expression of MMP-9 (immunohistochemical staining): significantly reduced the expression of MMP-9
TNF-α
  expression of TNF-α (immunohistochemical staining): significantly reduced the expression

## Benzalkonium chloride [BAC]
Pseudomonas aeruginosa; P. aeruginosa isolate NP220 (BAC-sensitive)
  MIC: 63 µg/mL
Pseudomonas aeruginosa; P. aeruginosa isolate NP221 (BAC-resistant)
  MIC: 4000 µg/mL
Pseudomonas aeruginosa; P. aeruginosa isolate NP222 (BAC-sensitive)
  MIC: 63 µg/mL

## silver oxide [Ag2O]
Staphylococcus aureus; S. aureus (ATCC)
  MIC: 3 µg/mL
Staphylococcus aureus; S. aureus (clin.)
  MIC: 6 µg/mL
[3]
  MIC: 2 µg/mL
Streptococcus pyogenes; S. pyog (clin. 303)
  MIC: 2 µg/mL
Streptococcus pyogenes; S. pyog (clin. 304)
  MIC: 3 µg/mL
Streptococcus pneumoniae; S. pneumo (clin 314)
  MIC: 3 µg/mL
Streptococcus pneumoniae; S. pneumo (clin 315)
  MIC: 2 µg/mL
Pseudomonas aeruginosa; lactate solutions, P. aerug (ATCC), nanocrystalline silver: range for 12 samples
  MIC: 0.8 µg/mL
Pseudomonas aeruginosa; lactate solutions, P. aerug. (clin.), nanocrystalline silver: range for 12 samples
  MIC: 2 µg/mL
Escherichia coli; lactate solutions, E. coli (ATCC), nanocrystalline silver: range for 12 samples
  MIC: 0.8 µg/mL
[4]
  MIC: 2.5 μg/ml silver
DNBS-induced colitis [1]; Example 27, 0.25% homogenized, intracolonic, five days
  total IBD score: unable to show significant reduction of total IBD score
DNBS-induced colitis [1]; Example 27, 0.5% homogenized, intracolonic, five days
  total IBD score: unable to show significant reduction of total IBD score
DNBS-induced colitis [1]; Example 27, 0.5% sonicated nanodispersion, 250 μl intracolonically once a day for five days
  total IBD score: significantly reduced the total IBD score
DNBS-induced colitis [1]; Example 28, 0.05% nanodispersion, intracolonic, five days
  total IBD score: but not 0.15% and 0.05%
DNBS-induced colitis [1]; Example 28, 0.15% nanodispersion, intracolonic, five days
  total IBD score: but not 0.15% and 0.05%
DNBS-induced colitis [1]; Example 28, 0.5% sonicated nanodispersion, 250 μl intracolonically once a day for five days
  total IBD score: significantly reduced the total IBD score
DNBS-induced colitis [1]; Example 28, 1.5% nanodispersion, intracolonic, five days
  total IBD score: significantly reduced the total IBD score
